In US8765809B2, “Ester derivative and use thereof” (Ajinomoto Co., Inc., priority 2006, dated 2014):

System: auricle of hairless mouse
Experiment: Measurement of external blood circulation enhancing action: vasodilatory effect (red spots) after application to the ear
Assay type: in vivo, hairless mouse (HR-1, female)
Set-up: key to Vasodilatory effect for hairless mouse (red spots) / Vasodilatory effect on hairless mouse (red spots): O: clear red spots is confirmed; Δ: weak red spots is confirmed; x: no development of red spots
Conditions: for Vasodilatory effect on hairless mouse (red spots) / red spots were observed at, time after application / red spots at 1 hr after application / red spots almost disappeared at / weak red spots were observed at, time after application / red spots observed (note, words): 5 wt % (ethanol); for vasodilatory / blood circulation enhancing effect, summary in words: summary of Tables 2 to 4; for red spots at 1 hr after application: 1 hr later
Description: The compound of each Example, capsinoid derivative and capsaicin were compared for vasodilatory effect using auricle of hairless mouse. A sample was applied to the right ear of hairless mouse (HR-1, female), and a control was applied to the left ear. […]

[1] = 5 wt % (liquid paraffin) as printed, second column of Table 2
[2] = 5 wt % (liquid paraffin), first column of Table 2
[3] = application of 5 wt % in liquid paraffin

COc1cc(COC(=O)CCCCCCC(C)C)ccc1O [dihydrocapsiate, 4-hydroxy-3-methoxybenzyl 8-methylnonanoate, reference compound]
Vasodilatory effect for hairless mouse (red spots) [1]: Δ | Vasodilatory effect for hairless mouse (red spots) [2]: ∘ | weak red spots were observed even after lapse of [3]: lapse of 90 min

COc1cc(/C=C/C(=O)OCCCCCC(C)C)ccc1O [compound Q-3, 6-methylheptyl ferulate]
Vasodilatory effect on hairless mouse (red spots): x | Vasodilatory effect for hairless mouse (red spots) [2]: x | blood circulation enhancing effect (note, words) [3]: Application of 5 wt %: no blood

COc1cc(CC(=O)OCCCCCCC(C)C)ccc1O [compound K-1, 7-methyloctyl homovanillate]
Vasodilatory effect for hairless mouse (red spots) (0.005 wt % (ethanol)): Δ | Vasodilatory effect for hairless mouse (red spots) (0.05 wt % (ethanol)): ∘ | Vasodilatory effect for hairless mouse (red spots) (0.5 wt % (ethanol)): ∘ | Vasodilatory effect for hairless mouse (red spots) [1]: ∘ | Vasodilatory effect for hairless mouse (red spots) [2]: ∘ | red spots were observed even after lapse of [3]: lapse of 90 min | vasodilatory / blood circulation enhancing effect, summary in words: potent vasodilatory effect

COc1cc(CCC(=O)OCCCCCC(C)C)ccc1O [compound L-2, 6-methylheptyl 3-(4-hydroxy-3-methoxyphenyl)propionate]
Vasodilatory effect on hairless mouse (red spots): ∘ | red spots were observed at, time after application: Red spots were observed at 5 min | red spots at 1 hr after application: thin red spots remained. L-4 showed | Vasodilatory effect for hairless mouse (red spots) [1]: Δ | Vasodilatory effect for hairless mouse (red spots) [2]: ∘ | red spots disappeared in [3]: spots disappeared in 1 hr | vasodilatory / blood circulation enhancing effect, summary in words: potent vasodilatory effect

COc1cc(CCCOC(=O)CCCCC(C)C)ccc1O [compound J-2, 3-(3-methoxy-4-hydroxyphenyl)propyl 6-methylheptanoate]
Vasodilatory effect on hairless mouse (red spots): ∘ | red spots almost disappeared at: almost disappeared at 30 min later. | weak red spots were observed at, time after application: Weak red spots were observed at 10 min | Vasodilatory effect for hairless mouse (red spots) [1]: x | Vasodilatory effect for hairless mouse (red spots) [2]: Δ | red spots disappeared in [3]: spots disappeared in 1 hr | vasodilatory / blood circulation enhancing effect, summary in words: weak blood circulation enhancing effect

COc1cc(/C=C/C(=O)OCCCCCCC(C)C)ccc1O [compound Q-2, 7-methyloctyl ferulate]
Vasodilatory effect on hairless mouse (red spots): x | Vasodilatory effect for hairless mouse (red spots) [2]: x | blood circulation enhancing effect (note, words) [3]: Application of 5 wt %: no blood

COc1cc(CCCOC(=O)CCCC(C)C)ccc1O [compound J-3, 3-(3-methoxy-4-hydroxyphenyl)propyl 5-methylhexanoate]
Vasodilatory effect on hairless mouse (red spots): ∘ | red spots almost disappeared at: almost disappeared at 30 min later. | weak red spots were observed at, time after application: Weak red spots were observed at 10 min | Vasodilatory effect for hairless mouse (red spots) [1]: x | Vasodilatory effect for hairless mouse (red spots) [2]: Δ | red spots disappeared in [3]: spots disappeared in 1 hr | vasodilatory / blood circulation enhancing effect, summary in words: weak blood circulation enhancing effect

COc1cc(COC(=O)CCCC/C=C/C(C)C)ccc1O [capsiate, 4-hydroxy-3-methoxybenzyl (E)-8-methyl-6-nonenoate, reference compound]
Vasodilatory effect on hairless mouse (red spots): ∘ | red spots observed (note, words): Clear red spots were observed. | Vasodilatory effect for hairless mouse (red spots) [1]: Δ | Vasodilatory effect for hairless mouse (red spots) [2]: ∘ | weak red spots were observed even after lapse of [3]: lapse of 90 min

COc1cc(CC(=O)OCCCCCC(C)C)ccc1O [compound K-3, 6-methylheptyl homovanillate]
Vasodilatory effect for hairless mouse (red spots) (0.005 wt % (ethanol)): Δ | Vasodilatory effect for hairless mouse (red spots) (0.05 wt % (ethanol)): ∘ | Vasodilatory effect for hairless mouse (red spots) (0.5 wt % (ethanol)): ∘ | Vasodilatory effect for hairless mouse (red spots) [1]: ∘ | Vasodilatory effect for hairless mouse (red spots) [2]: ∘ | red spots were observed even after lapse of [3]: lapse of 90 min | vasodilatory / blood circulation enhancing effect, summary in words: potent vasodilatory effect

COc1cc(CCCOC(=O)CCCCCC(C)C)ccc1O [compound J-1, 3-(3-methoxy-4-hydroxyphenyl)propyl 7-methyloctanoate]
Vasodilatory effect on hairless mouse (red spots): ∘ | red spots almost disappeared at: almost disappeared at 30 min later. | weak red spots were observed at, time after application: Weak red spots were observed at 10 min | Vasodilatory effect for hairless mouse (red spots) [1]: x | Vasodilatory effect for hairless mouse (red spots) [2]: Δ | red spots disappeared in [3]: spots disappeared in 1 hr | vasodilatory / blood circulation enhancing effect, summary in words: weak blood circulation enhancing effect

COc1cc(/C=C/C(=O)OCCCCCCCC(C)C)ccc1O [compound Q-1, 8-methylnonyl ferulate]
Vasodilatory effect on hairless mouse (red spots): x | Vasodilatory effect for hairless mouse (red spots) [2]: x | blood circulation enhancing effect (note, words) [3]: Application of 5 wt %: no blood

COc1cc(CCCOC(=O)CCCCCCC(C)C)ccc1O [compound J, 3-(3-methoxy-4-hydroxyphenyl)propyl 8-methylnonanoate]
Vasodilatory effect on hairless mouse (red spots): x | Vasodilatory effect for hairless mouse (red spots) [2]: x | blood circulation enhancing effect (note, words) [3]: Application of 5 wt %: no blood

COc1cc(COC(=O)CCCCCC(C)C)ccc1O [nordihydrocapsiate, 4-hydroxy-3-methoxybenzyl 7-methyl-octanoate, reference compound]
Vasodilatory effect for hairless mouse (red spots) [1]: Δ | Vasodilatory effect for hairless mouse (red spots) [2]: ∘ | weak red spots were observed even after lapse of [3]: lapse of 90 min

CC[C@H](C)CCCCCOC(=O)CCc1ccc(O)c(OC)c1 [compound L-4, (S)-(+)-6-methyloctyl 3-(4-hydroxy-3-methoxyphenyl)propionate]
Vasodilatory effect on hairless mouse (red spots): ∘ | red spots were observed at, time after application: Red spots were observed at 5 min | red spots at 1 hr after application: strong red spots after 1 hr. | Vasodilatory effect for hairless mouse (red spots) [1]: ∘ | Vasodilatory effect for hairless mouse (red spots) [2]: ∘ | weak red spots were observed even after lapse of [3]: lapse of 1 hr | vasodilatory / blood circulation enhancing effect, summary in words: potent vasodilatory effect

CCCCCC(=O)OCCCc1ccc(O)c(OC)c1 [compound J-5, 3-(3-methoxy-4-hydroxyphenyl)propyl n-hexanoate]
Vasodilatory effect on hairless mouse (red spots): Δ | red spots almost disappeared at: almost disappeared at 30 min later. | weak red spots were observed at, time after application: Weak red spots were observed at 10 min | Vasodilatory effect for hairless mouse (red spots) [1]: x | Vasodilatory effect for hairless mouse (red spots) [2]: Δ | red spots disappeared in [3]: spots disappeared in 1 hr | vasodilatory / blood circulation enhancing effect, summary in words: weak blood circulation enhancing effect

COc1cc(CO)ccc1O [vanillyl alcohol, reference compound]
Vasodilatory effect on hairless mouse (red spots): x | Vasodilatory effect for hairless mouse (red spots) [2]: x | blood circulation enhancing effect (note, words) [3]: Application of 5 wt %: no blood

COc1cc(CNC(=O)CCCC/C=C/C(C)C)ccc1O [capsaicin, reference compound]
Vasodilatory effect for hairless mouse (red spots) (0.005 wt % (ethanol)): Δ | Vasodilatory effect for hairless mouse (red spots) (0.05 wt % (ethanol)): ∘ | Vasodilatory effect for hairless mouse (red spots) (0.5 wt % (ethanol)): ∘ | Vasodilatory effect on hairless mouse (red spots): ∘ | red spots observed (note, words): Strong red spots were observed. | Vasodilatory effect for hairless mouse (red spots) [1]: ∘ | Vasodilatory effect for hairless mouse (red spots) [2]: ∘ | red spots were observed even after lapse of (application of 1 wt % in liquid paraffin): lapse of 2 hr

COc1cc(CCC(=O)OCCCCCCC(C)C)ccc1O [compound L-1, 7-methyloctyl 3-(4-hydroxy-3-methoxyphenyl)propionate]
Vasodilatory effect on hairless mouse (red spots): ∘ | red spots were observed at, time after application: Red spots were observed at 5 min | red spots at 1 hr after application: thin red spots remained. L-4 showed | Vasodilatory effect for hairless mouse (red spots) [1]: Δ | Vasodilatory effect for hairless mouse (red spots) [2]: ∘ | red spots disappeared in [3]: spots disappeared in 1 hr | vasodilatory / blood circulation enhancing effect, summary in words: potent vasodilatory effect

COc1cc(CC(=O)OCCCCCCCC(C)C)ccc1O [compound K, 8-methylnonyl homovanillate]
Vasodilatory effect for hairless mouse (red spots) [2]: ∘ | weak red spots were observed even after lapse of [3]: lapse of 2 hr | vasodilatory / blood circulation enhancing effect, summary in words: potent vasodilatory effect

COc1cc(CCC(=O)OCCCCCCCC(C)C)ccc1O [compound L, 8-methylnonyl 3-(4-hydroxy-3-methoxyphenyl)propionate]
Vasodilatory effect for hairless mouse (red spots) [2]: ∘ | red spots were observed even after lapse of [3]: lapse of 90 min | vasodilatory / blood circulation enhancing effect, summary in words: potent vasodilatory effect

COc1cc(CCCOC(=O)CCC(C)C)ccc1O [compound J-4, 3-(3-methoxy-4-hydroxyphenyl)propyl 4-methylpentanoate]
Vasodilatory effect on hairless mouse (red spots): ∘ | red spots almost disappeared at: almost disappeared at 30 min later. | weak red spots were observed at, time after application: Weak red spots were observed at 10 min | Vasodilatory effect for hairless mouse (red spots) [1]: x | Vasodilatory effect for hairless mouse (red spots) [2]: Δ | red spots disappeared in [3]: spots disappeared in 1 hr | vasodilatory / blood circulation enhancing effect, summary in words: weak blood circulation enhancing effect

CC[C@H](C)CCCCCOC(=O)Cc1ccc(O)c(OC)c1 [compound K-2, (S)-(+)-6-methyloctyl homovanillate]
Vasodilatory effect for hairless mouse (red spots) (0.005 wt % (ethanol)): Δ | Vasodilatory effect for hairless mouse (red spots) (0.05 wt % (ethanol)): ∘ | Vasodilatory effect for hairless mouse (red spots) (0.5 wt % (ethanol)): ∘ | Vasodilatory effect for hairless mouse (red spots) [1]: ∘ | Vasodilatory effect for hairless mouse (red spots) [2]: ∘ | red spots were observed even after lapse of [3]: lapse of 90 min | vasodilatory / blood circulation enhancing effect, summary in words: potent vasodilatory effect
